{
  "source": "patent US20130316963A1",
  "about": "“INNATE DEFENCE REGULATORY PEPTIDE COMPOSITIONS FOR TREATMENT OF ARTHRITIS” (UNIVERSITY OF MANITOBA, priority 2010, published 2013)",
  "format_in_all_cases": "cell-based",
  "key": {"human FLS cells [1]": {"tested_on": "human FLS cells", "assay": "Cellular cytotoxicity by release of lactate dehydrogenase (LDH)", "conditions": "presence and absence of cytokine stimulation, 24 hr; IDR-1002 100 μg/ml, IDR-1 200 μg/ml; data not shown", "protocol": "Synovial tissues were obtained from patients with OA in accordance to a protocol by the Institutional Review Board at the University of Manitoba. FLS cells were isolated from the synovial tissues following the procedure taught by Kammouni et al. (2007, Regulation of apoptosis in fibroblast-like synoviocytes by the hypoxia-induced Bcl-2 family member Bcl-2/adenovirus E1B 19-kd protein-interacting protein 3. Arthritis Rheum. 56:2854-2863). […] Cellular cytotoxicity was evaluated by monitoring the release of lactate dehydrogenase (LDH) employing a colorimetric detection kit (Roche Diagnostics, Laval, QC, Canada).\nInflammatory cytokines TNF-α and IL-1β stimulate cells types such as FLS, chondrocytes and macrophages resulting in the production of MMP-3 in arthritic joints. […] In this study we evaluated the impact of IDR peptides on TNF-α and IL-1β-induced MMP-3 production. […] The peptides were not cytotoxic to the FLS cells in the presence and absence of cytokine stimulation, as determined by monitoring the tissue culture supernatants for the release of LDH after 24 hr of stimulation (data not shown). Tissue culture supernatants were monitored after 24 hr of stimulation for MMP-3 production by ELISA. […]"}, "human FLS cells [2]": {"tested_on": "human FLS cells", "assay": "Cytokine and chemokine production in human FLS cell supernatants (BD Cytometric Bead Array)", "protocol": "Tissue culture supernatants were harvested after stimulation of human FLS cells with various cytokines (as indicated) with and without IDR peptides after 24 hr. The supernatants were centrifuged at 1500×g for 7 min to obtain cell-free samples. The samples were aliquoted and stored at −20° C. until further use. Production of MMP-3 in the tissue culture supernatants was monitored using Quantikine® human MMP-3 (total) ELISA kit (Quantikine is a registered trademark of R&D Systems, Inc. Minneapolis, Minn., USA) as per the manufacturer's instructions. Production of pro-inflammatory cytokines IL-1β, IL-6, IL-10, TNF, IL-12p70 and chemokines IL-8, RANTES, MIG, MCP-1, IP-10 in the tissue culture supernatants was determined using preconfigured multiplex BD Cytometric Bead Array (CBA) human inflammation and chemokine kits respectively, employing the FACS Calibur flow cytometer (BD Biosciences, Mississauga, ON, Canada) as per the manufacture's instructions. The concentration of the cytokines or chemokines in the tissue culture supernatants was evaluated by establishing a standard curve with serial dilutions of the recombinant human cytokines or chemokines as required.\nTo evaluate whether IDR-1002 alone could induce inflammatory responses, human FLS cells were stimulated with IDR-1002 (100 μg/ml) for 24 hr. BD Cytometric Bead Array (CBA) preconfigured human inflammation (IL-8, IL-1β, IL-6, IL-10, TNF, IL-12p70) kit was used to evaluate protein secretion of the various analytes in the tissue culture supernatants employing FACS Calibur flow cytometer.\nIL-1β-induced protein profiles (proteome) in the presence and absence of IDR-1002 were evaluated using quantitative proteomics iTRAQ® tools employing different isobaric tags. Human FLS cells were treated with IDR-1002 (100 μg/ml) for 45 min prior to IL-1β (10 ng/ml) stimulation for 24 hr. Tissue culture supernatants were monitored for protein production of MMP-3 and chemokines IL-8 and MCP-1 production, in order to evaluate the validity of the assay before processing the cell lysates for quantitative proteomic evaluation. MMP-3 production was monitored in the tissue culture supernatants by ELISA, and chemokines IL-8 and MCP-1 production were evaluated by BD preconfigured human chemokine Cytometric Bead Array."}, "human FLS cells [3]": {"tested_on": "human FLS cells", "assay": "IL-6 production in human FLS cells stimulated with TGF-β (ELISA)", "conditions": "FIG. 4", "protocol": "Tissue culture supernatants were harvested from human FLS cells after stimulation for 24 hr with TGF-β with and without IDR-1002. The supernatants were centrifuged at 1500×g for 7 min to obtain cell-free samples. The samples were aliquoted and stored at −20° C. until further use. Production of IL-6 in the tissue culture supernatants was monitored using Quantikine® human […] ELISA following the manufacturer's instructions. […] FLS cells stimulated with TGF-β produced more than 500 pg/ml of IL-6. […] Results shown are an average of at least three independent biological experiments performed with cells isolated from synovial tissues obtained from independent donors±standard error (*p<0.05, **p<0.01)."}},
  "data": [
    {"sequence": "VQRWLIVWRIRK (IDR-1002 peptide)", "values": [
      {"measurement": "cytotoxicity to FLS cells (release of LDH)", "setting": "human FLS cells [1]", "value": "not cytotoxic"},
      {"measurement": "IL-10 and IL-12p70 in supernatants by flow cytometry", "setting": "human FLS cells [2]; IDR-1002 100 μg/ml alone, 24 hr", "value": "could not be detected"},
      {"measurement": "suppression of IL-1β-induced chemokine MCP-1 production", "setting": "human FLS cells [2]; IDR-1002 100 μg/ml for 45 min prior to IL-1β 10 ng/ml, 24 hr, FIG. 2B", "value": "> 60", "unit": "%"},
      {"measurement": "suppression of IL-1β-induced chemokine IL-8 production", "setting": "human FLS cells [2]; IDR-1002 100 μg/ml for 45 min prior to IL-1β 10 ng/ml, 24 hr, FIG. 2C", "value": 20, "unit": "%"},
      {"measurement": "release of pro-inflammatory cytokines TNF-α, IL-1β or IL6 by peptide alone", "setting": "human FLS cells [2]; IDR-1002 100 μg/ml, 24 hr, vs un-stimulated control cells, data not shown", "value": "did not induce"},
      {"measurement": "chemokine production induced by peptide by itself in FLS", "setting": "human FLS cells [2]; IDR-1002 alone, human FLS", "value": "did not induce chemokine production by itself"},
      {"measurement": "reduction in TGF-β-induced IL-6 production", "setting": "human FLS cells [3]; TGF-β with IDR-1002, 24 hr", "value": "more than 50%"},
      {"measurement": "IL-6 production by IDR-1002 alone", "setting": "human FLS cells [3]; no TGF-β, 24 hr", "value": "did not stimulate production of IL-6"}
    ]}
  ]
}
